Assay results as given in patent publication US7595055B2, “Pharmaceutical composition comprising an extract or compounds isolated from Elfvingia applanata for the prevention and the treatment of diabetes and diabetic complications” (priority 2003, dated 2009).
Read-outs that look alike come from different tables or passages of the source.

Target: T1, rat lenses aldose reductase (Rattus norvegicus, UniProt P07943)
T1 construct: The supernatant fraction of the rat lens homogenate was prepared in accordance with the procedure described in literature; from tissue; host or cells: lens of SD rats
Assay: Inhibitory effect on rat lens aldose reductase activity in vitro
Type: biochemical
Conditions: for IC50: rat lens aldose reductase, DL-glyceraldehyde substrate, NADPH decrease at 340 nm
Procedure: Crude aldose reductase (AR) was prepared as follows: rat lense were removed from SD rats weighing 250-280 g and frozen until use. The supernatant fraction of the rat lens homogenate was prepared in accordance with the procedure described in literature (Hayman, S. & Kinoshita, J. H.; J. Biol. Chem., 240, pp 877-882, 1965). Partially purified enzyme with a specific activity of 6.5 U/mg was routinely used to rest enzyme inhibition.
(2) Measurement of Aldose Reductase Activity AR activity was assayed spectrophotometrically by measuring the decrease in absorption of NADPH at 340 nm over a 5 min with DL-glyceraldehyde as a substrate (Sato, S and Kador, P. F., Biochem. Pharmacol., 40, pp 1033-1042, 1990). Each 1.0 ml of cuvette containing equal units of enzyme, 0.10M sodium phospate buffer (pH 6.2), 0.3 mM NADPH with or without 10 mM substrate and the enzyme inhibitor. The concentration of inhibitors giving 50% inhibition of enzyme activity (IC50) was calculated from the lease-squares regression line of the logarithmic concentration plotted against the remaining activity.

Row | IC50 (read-out: IC50 (converted)) | SMILES | inhibition (%) (Concentration 0.1 (unit not given)) | inhibition (%) (Concentration 1 (unit not given)) | inhibition (%) (Concentration 10 (unit not given)) | IC50
1 | 256 µM | O=C(O)c1cc(O)ccc1O [2,5-dihydroxybenzoic acid, 2,5-dihydroxy benzoic acid] |  |  |  | 
2 | 52.3 µM | CCCCCCCC[C@@H](O)C(=O)N[C@@H](CO[C@@H]1OC(CO)[C@@H](O)C(O)C1O)[C@H](O)/C=C/CC/C=C(\C)CCCC (stereo partly shown) [Cerebroside] |  |  |  | 
3 | 5.21 µM | O=Cc1ccc(O)c(O)c1 [Protocatechualdehyde, protocatechualdehyde] |  |  |  | 
4 |  | O=C(O)CC1(CC(=O)O)CCCC1 [TMG, tetramethylene glutaric acid] | 29.8% | 53.7% | 82.1% | 0.63 µg/mL
